Source: article PMC10924921, “Mi-2β promotes immune evasion in melanoma by activating EZH2 methylation” (Nature Communications, 2024)

What was measured:
Test in all cases: biochemical
Parameters in all cases: KINOMEscan active-site competition binding panel (468 kinase assays), per cent of control at 1000 nM
Conditions in all cases: KINOMEscan per cent of control (binding competition); read-out: Percent Control
[1] = target: T1, ABL1(F317I)-phosphorylated (Homo sapiens, UniProt P00519, F317I)
T1 construct: phosphorylated
T1 sequence (P00519 whole entry F317I): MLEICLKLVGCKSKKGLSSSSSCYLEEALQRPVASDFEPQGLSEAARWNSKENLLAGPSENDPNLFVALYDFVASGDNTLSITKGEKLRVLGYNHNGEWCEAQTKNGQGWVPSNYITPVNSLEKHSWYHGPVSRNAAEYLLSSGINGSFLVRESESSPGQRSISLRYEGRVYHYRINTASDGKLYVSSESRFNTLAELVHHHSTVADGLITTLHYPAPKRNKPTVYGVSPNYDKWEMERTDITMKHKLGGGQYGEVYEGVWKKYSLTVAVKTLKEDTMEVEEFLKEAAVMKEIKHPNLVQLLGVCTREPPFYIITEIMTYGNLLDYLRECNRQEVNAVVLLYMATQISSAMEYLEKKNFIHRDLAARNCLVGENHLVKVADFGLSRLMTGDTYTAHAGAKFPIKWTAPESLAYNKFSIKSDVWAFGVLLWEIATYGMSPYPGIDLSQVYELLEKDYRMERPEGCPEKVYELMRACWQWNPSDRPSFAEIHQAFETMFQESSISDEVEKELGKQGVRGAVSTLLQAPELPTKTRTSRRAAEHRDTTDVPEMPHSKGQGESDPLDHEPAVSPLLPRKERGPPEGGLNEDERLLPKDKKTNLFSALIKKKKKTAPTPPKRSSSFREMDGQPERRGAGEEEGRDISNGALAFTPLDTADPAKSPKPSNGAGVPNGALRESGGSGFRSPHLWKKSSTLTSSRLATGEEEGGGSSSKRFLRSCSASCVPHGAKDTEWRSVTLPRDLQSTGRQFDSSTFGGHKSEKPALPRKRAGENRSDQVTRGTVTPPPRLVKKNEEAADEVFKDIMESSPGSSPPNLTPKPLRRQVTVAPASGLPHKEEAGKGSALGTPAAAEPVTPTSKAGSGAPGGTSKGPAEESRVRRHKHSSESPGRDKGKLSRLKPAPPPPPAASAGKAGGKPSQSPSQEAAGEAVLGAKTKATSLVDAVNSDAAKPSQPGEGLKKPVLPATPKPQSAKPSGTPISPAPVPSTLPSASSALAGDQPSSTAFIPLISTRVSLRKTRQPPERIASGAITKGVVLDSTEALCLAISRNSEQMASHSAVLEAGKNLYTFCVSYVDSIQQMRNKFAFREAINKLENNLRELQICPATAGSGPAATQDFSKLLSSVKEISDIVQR
Text: (§1) Figure S7 / Percent Control

ACVR2B = ACVR2B (Homo sapiens, UniProt Q13705)
Chain of ACVR2B (Q13705 whole entry): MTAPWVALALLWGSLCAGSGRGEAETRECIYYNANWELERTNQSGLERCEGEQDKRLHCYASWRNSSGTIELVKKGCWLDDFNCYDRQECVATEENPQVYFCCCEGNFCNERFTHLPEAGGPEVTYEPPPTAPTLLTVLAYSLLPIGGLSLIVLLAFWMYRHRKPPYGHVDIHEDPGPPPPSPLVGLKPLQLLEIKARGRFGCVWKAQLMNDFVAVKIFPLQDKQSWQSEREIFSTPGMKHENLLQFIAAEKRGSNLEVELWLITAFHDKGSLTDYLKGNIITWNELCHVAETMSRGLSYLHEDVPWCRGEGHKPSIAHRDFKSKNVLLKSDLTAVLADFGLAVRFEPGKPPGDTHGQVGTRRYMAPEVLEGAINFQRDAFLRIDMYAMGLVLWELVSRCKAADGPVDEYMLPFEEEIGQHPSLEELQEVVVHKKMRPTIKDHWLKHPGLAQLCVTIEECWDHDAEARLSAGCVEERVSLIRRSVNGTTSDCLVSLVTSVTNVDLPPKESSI
Text: as §1

AMPK-alpha2 = target: T2, AMPK-alpha2 (Homo sapiens, UniProt P54646)
T2 construct: gene PRKAA2
Text: as §1

EPHA6 = EPHA6 (Homo sapiens, UniProt Q9UF33)
Text: as §1

ERK2 = target: T3, ERK2 (Homo sapiens, UniProt P28482)
T3 construct: gene MAPK1
Text: as §1

FGFR3(G697C) = FGFR3(G697C) (Homo sapiens, UniProt P22607, G697C)
Chain of FGFR3(G697C) (P22607 whole entry G697C): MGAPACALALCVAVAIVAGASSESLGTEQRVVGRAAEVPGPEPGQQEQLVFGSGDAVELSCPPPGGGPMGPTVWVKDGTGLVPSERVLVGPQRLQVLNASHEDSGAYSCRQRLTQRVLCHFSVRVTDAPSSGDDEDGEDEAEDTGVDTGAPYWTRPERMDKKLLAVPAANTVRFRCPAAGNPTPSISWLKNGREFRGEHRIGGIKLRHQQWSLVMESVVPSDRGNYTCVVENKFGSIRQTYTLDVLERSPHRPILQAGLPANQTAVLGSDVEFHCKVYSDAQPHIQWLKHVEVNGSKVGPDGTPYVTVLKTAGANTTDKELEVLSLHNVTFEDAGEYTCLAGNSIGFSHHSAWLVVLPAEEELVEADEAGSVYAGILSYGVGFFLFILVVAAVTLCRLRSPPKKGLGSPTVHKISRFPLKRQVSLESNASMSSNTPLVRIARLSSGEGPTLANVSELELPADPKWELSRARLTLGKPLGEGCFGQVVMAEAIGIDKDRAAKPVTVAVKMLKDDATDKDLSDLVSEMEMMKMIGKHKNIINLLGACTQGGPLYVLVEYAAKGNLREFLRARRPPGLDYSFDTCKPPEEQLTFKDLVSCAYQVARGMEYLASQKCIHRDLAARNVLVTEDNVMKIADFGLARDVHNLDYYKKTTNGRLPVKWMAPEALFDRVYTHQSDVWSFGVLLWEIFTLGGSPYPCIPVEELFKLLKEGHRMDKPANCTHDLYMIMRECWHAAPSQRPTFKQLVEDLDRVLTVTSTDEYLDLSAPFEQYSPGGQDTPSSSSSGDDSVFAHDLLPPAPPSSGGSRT
Text: as §1

FGR = FGR (Homo sapiens, UniProt P09769)
Text: as §1

FLT3 = FLT3 (Homo sapiens, UniProt P36888)
Text: as §1

FLT3(K663Q) = FLT3(K663Q) (Homo sapiens, UniProt P36888, K663Q)
Text: as §1

IKK-alpha = target: T4, IKK-alpha (Homo sapiens, UniProt O15111)
T4 construct: gene CHUK
Text: as §1

[2] = target: T5, JAK2(JH1domain-catalytic) (Homo sapiens, UniProt O60674)
T5 construct: JH1domain-catalytic
Text: as §1

MAP3K1 = MAP3K1 (Homo sapiens, UniProt Q13233)
Chain of MAP3K1 (Q13233 whole entry): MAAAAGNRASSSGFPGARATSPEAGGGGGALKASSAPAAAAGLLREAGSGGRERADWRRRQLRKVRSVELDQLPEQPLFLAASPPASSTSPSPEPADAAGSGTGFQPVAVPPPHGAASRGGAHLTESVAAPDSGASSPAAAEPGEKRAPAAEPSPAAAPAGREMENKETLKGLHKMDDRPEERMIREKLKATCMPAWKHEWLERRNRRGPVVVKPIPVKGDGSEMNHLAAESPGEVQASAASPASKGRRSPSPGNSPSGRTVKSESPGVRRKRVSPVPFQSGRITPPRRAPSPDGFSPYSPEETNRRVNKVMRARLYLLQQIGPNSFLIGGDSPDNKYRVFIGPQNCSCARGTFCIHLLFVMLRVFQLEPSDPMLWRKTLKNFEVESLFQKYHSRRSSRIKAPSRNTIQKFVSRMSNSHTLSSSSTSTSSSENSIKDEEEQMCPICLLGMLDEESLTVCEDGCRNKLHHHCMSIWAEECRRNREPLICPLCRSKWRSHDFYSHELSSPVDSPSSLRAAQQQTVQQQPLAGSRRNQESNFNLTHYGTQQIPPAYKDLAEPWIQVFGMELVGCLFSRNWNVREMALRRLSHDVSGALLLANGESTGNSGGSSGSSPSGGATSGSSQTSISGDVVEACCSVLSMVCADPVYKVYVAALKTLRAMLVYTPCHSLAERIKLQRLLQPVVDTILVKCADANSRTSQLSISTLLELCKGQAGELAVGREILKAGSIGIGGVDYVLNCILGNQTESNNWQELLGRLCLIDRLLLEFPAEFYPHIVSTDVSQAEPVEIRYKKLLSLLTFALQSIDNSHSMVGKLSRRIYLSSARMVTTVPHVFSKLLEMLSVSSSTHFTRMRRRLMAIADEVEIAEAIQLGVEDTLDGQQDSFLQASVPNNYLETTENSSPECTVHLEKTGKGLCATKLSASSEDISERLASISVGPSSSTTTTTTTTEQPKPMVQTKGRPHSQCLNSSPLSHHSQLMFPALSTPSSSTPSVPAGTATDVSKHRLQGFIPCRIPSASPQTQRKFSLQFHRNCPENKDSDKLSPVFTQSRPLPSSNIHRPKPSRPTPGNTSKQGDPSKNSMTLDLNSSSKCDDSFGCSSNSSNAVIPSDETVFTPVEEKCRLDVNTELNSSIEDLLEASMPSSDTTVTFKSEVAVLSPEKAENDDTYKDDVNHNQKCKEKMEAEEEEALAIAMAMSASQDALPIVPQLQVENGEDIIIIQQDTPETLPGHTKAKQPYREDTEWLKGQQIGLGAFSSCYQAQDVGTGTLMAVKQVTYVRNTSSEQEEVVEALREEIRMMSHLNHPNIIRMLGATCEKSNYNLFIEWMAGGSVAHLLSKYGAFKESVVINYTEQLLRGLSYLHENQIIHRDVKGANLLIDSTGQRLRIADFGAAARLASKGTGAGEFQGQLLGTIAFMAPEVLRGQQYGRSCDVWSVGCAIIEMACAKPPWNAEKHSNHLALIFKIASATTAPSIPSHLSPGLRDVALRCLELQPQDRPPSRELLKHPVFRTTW
Text: as §1

MAP4K3 = MAP4K3 (Homo sapiens, UniProt Q8IVH8)
Text: as §1

NIM1 = target: T6, NIM1 (Homo sapiens, UniProt Q8IY84)
T6 construct: gene NIM1K
Text: as §1

PCTK1 = target: T7, PCTK1 (Homo sapiens, UniProt Q00536)
T7 construct: gene CDK16
Text: as §1

PKN2 = PKN2 (Homo sapiens, UniProt Q16513)
Text: as §1

PRKCH = PRKCH (Homo sapiens, UniProt P24723)
Text: as §1

PRKG1 = PRKG1 (Homo sapiens, UniProt Q13976)
Chain of PRKG1 (Q13976 whole entry): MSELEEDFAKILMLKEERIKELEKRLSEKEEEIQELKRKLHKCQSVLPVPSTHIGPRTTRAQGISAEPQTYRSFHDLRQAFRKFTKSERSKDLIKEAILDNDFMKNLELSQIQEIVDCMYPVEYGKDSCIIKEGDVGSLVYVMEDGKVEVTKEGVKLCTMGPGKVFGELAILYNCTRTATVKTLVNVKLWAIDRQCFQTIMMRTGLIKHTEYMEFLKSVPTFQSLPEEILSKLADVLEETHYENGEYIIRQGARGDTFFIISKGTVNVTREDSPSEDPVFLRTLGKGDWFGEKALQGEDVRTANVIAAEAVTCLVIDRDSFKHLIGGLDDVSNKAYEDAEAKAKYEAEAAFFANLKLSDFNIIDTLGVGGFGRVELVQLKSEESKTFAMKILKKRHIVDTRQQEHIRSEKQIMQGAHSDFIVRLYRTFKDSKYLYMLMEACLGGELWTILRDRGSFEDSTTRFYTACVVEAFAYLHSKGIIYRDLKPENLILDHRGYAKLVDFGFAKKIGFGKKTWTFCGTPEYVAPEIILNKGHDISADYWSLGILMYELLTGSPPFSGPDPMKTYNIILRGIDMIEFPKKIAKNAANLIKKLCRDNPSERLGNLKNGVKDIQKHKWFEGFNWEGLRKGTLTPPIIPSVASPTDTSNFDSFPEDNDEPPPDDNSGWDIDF
Text: as §1

QSK = target: T8, QSK (Homo sapiens, UniProt Q9Y2K2)
T8 construct: gene SIK3
Text: as §1

S6K1 = target: T9, S6K1 (Homo sapiens, UniProt P23443)
T9 construct: gene RPS6KB1
Text: as §1

STK39 = STK39 (Homo sapiens, UniProt Q9UEW8)
Text: as §1

TESK1 = TESK1 (Homo sapiens, UniProt Q15569)
Text: as §1

TNK1 = TNK1 (Homo sapiens, UniProt Q13470)
Text: as §1

TSSK3 = TSSK3 (Homo sapiens, UniProt Q96PN8)
Chain of TSSK3 (Q96PN8 whole entry): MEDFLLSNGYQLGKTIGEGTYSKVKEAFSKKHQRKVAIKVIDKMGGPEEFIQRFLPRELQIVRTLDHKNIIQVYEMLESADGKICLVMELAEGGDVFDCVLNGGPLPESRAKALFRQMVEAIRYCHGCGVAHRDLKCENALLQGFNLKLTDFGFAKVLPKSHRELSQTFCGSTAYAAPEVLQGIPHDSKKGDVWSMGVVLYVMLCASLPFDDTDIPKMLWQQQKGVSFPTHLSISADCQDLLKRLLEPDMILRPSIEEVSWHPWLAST
Text: as §1

YSK1 = target: T10, YSK1 (Homo sapiens, UniProt O00506)
T10 construct: gene STK25
Text: as §1

## Cn1c(=O)[nH]c2ccc(-c3cccc(C(=O)NC4CCn5ccnc5C4)c3)cc21 (stereo not shown) [Z36-MP5]
[1]
  remaining binding at 1 µM: 90%
ACVR2B
  remaining binding at 1 µM: 91%
AMPK-alpha2
  remaining binding at 1 µM: 93%
EPHA6
  remaining binding at 1 µM: 69%
ERK2
  remaining binding at 1 µM: 81%
FGFR3(G697C)
  remaining binding at 1 µM: 49%
FGR
  remaining binding at 1 µM: 85%
FLT3
  remaining binding at 1 µM: 95%
FLT3(K663Q)
  remaining binding at 1 µM: 98%
IKK-alpha
  remaining binding at 1 µM: 80%
[2]
  remaining binding at 1 µM: 74%
MAP3K1
  remaining binding at 1 µM: 54%
MAP4K3
  remaining binding at 1 µM: 51%
NIM1
  remaining binding at 1 µM: 72%
PCTK1
  remaining binding at 1 µM: 82%
PKN2
  remaining binding at 1 µM: 98%
PRKCH
  remaining binding at 1 µM: 52%
PRKG1
  remaining binding at 1 µM: 64%
QSK
  remaining binding at 1 µM: 63%
S6K1
  remaining binding at 1 µM: 50%
STK39
  remaining binding at 1 µM: 60%
TESK1
  remaining binding at 1 µM: 100%
TNK1
  remaining binding at 1 µM: 77%
TSSK3
  remaining binding at 1 µM: 42%
YSK1
  remaining binding at 1 µM: 98%
